Our source for the IC50 values is patent US20240025919A1, “AZA-TETRACYCLIC OXAZEPINE COMPOUNDS AND USES THEREOF” (Genentech, Inc., priority 2022, published 2024).

In one test the target is KRAS G12D (Homo sapiens (Human), UniProt P01116, G12D). The experiment in a line: KRAS G12D LoEnz Biochemical Assay, BODIPY-GDP Exchange TR-FRET (SOS1-mediated nucleotide exchange). The conditions noted are these: read-out: KRas (G12D) GDP HTRF IC50.
A further test deals with KRAS WT (Homo sapiens (Human), UniProt P01116). The experiment in a line: KRAS WT Biochemical Assay, BODIPY-GDP Exchange TR-FRET (Example 502; 0.06 nM KRAS WT, 15 nM GDP, 300 nM SOS1, 120-minute incubation). The conditions noted are these: read-out: KRas HTRF IC50. The method in brief:
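Biotin-tagged recombinant KRAS WT (0.06 nM) preloaded with 15 nM GDP and Tb-streptavidin, 10 min RT, then exchange started with 300 nM SOS1 plus 300 nM BODIPY-GDP in HEPES pH 7.5 buffer with MgCl2. TR-FRET 520/490 ratio read after 120 min; normalized to DMSO and full-inhibition control; IC50 from 4-parameter fit.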

KRAS WT, sequence (P01116-2 other isoform, or with tags, fused parts or gaps): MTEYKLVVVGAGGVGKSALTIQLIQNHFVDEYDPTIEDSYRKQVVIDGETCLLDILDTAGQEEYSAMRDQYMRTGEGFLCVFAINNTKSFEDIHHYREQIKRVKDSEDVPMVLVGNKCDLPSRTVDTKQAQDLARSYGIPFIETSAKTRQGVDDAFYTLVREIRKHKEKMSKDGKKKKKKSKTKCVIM
KRAS G12D, sequence (P01116-2 other isoform, or with tags, fused parts or gaps G12D): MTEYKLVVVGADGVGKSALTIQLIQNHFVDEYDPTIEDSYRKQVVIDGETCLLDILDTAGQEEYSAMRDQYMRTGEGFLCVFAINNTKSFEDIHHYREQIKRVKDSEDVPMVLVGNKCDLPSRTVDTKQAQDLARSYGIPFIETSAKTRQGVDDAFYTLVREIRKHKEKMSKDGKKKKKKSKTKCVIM

On to `Cc1c(F)c(N)cc(-c2nc3c4c(nc(OC[C@@]56CCCN5C[C@H](F)C6)nc4c2F)N2C[C@H]4CC[C@H](N4)[C@H]2[C@H](C)O3)c1C=O` [Compound 59, 4-Amino-3-fluoro-6-((5S,5aS,6S,9R)-1-fluoro-12-(((2R,7aS)-2-fluorotetrahydro-1H-pyrrolizin-7a(5H)-yl)methoxy)-5-methyl-5a,6,7,8,9,10-hexahydro-5H-4-oxa-3,10a,11,13,14-pentaaza-6,9-methanonaphtho[1,8-ab]heptalen-2-yl)-2-methylbenzaldehyde], for which the IC50 amounted to 0.31 nM on KRAS G12D and 51.4 nM at KRAS WT.
On the same counts, the results for `C[C@@H]1Oc2nc(-c3cc(N)cc(F)c3C(F)(F)F)c(F)c3nc(OCC4CCC5N4CCOC5(C)C)nc(c23)N2C[C@H]3CC[C@H](N3)[C@@H]12` (stereo partly drawn) [Compound 157, 3-((5S,5aS,6S,9R)-12-((1,1-Dimethylhexahydro-1H-pyrrolo[2,1-c][1,4]oxazin-6-yl)methoxy)-1-fluoro-5-methyl-5a,6,7,8,9,10-hexahydro-5H-4-oxa-3,10a,11,13,14-pentaaza-6,9-methanonaphtho[1,8-ab]heptalen-2-yl)-5-fluoro-4-(trifluoromethyl)aniline] are 0.55 nM and 45.6 nM.
As for `Cc1c(F)c(N)cc(-c2nc3c4c(nc(OC[C@@H]5[C@@H]6CCN5CCO6)nc4c2F)N2C[C@H]4CC[C@H](N4)[C@H]2[C@H](C)O3)c1C(F)(F)F` [Compound 136, 5-((5S,5aS,6S,9R)-12-(((5S,8R)-4-Oxa-1-azabicyclo[3.2.1]octan-8-yl)methoxy)-1-fluoro-5-methyl-5a,6,7,8,9,10-hexahydro-5H-4-oxa-3,10a,11,13,14-pentaaza-6,9-methanonaphtho[1,8-ab]heptalen-2-yl)-2-fluoro-3-methyl-4-(trifluoromethyl)aniline], the IC50 was 0.38 nM at KRAS G12D and 90.8 nM at KRAS WT.
On the same counts, the results for `Cc1c(F)c(N)cc(-c2nc3c4c(nc(OC[C@@H](F)CN5CC(CO)(CO)C5)nc4c2F)N2C[C@H]4CC[C@H](N4)[C@H]2[C@H](C)O3)c1C(F)(F)F` [Compound 146] are 0.76 nM and 114 nM.
On the same counts, the results for `Cc1c(F)c(N)cc(-c2nc3c4c(nc(OC[C@@]56CCC(C)N5C[C@H](F)C6)nc4c2F)N2C[C@H]4CC[C@H](N4)[C@H]2[C@H](C)O3)c1C(F)(F)F` (stereo partly drawn) [Compound 122, 2-fluoro-5-((5S,5aS,6S,9R)-1-fluoro-12-(((2R,7aS)-2-fluoro-5-methyltetrahydro-1H-pyrrolizin-7a(5H)-yl)methoxy)-5-methyl-5a,6,7,8,9,10-hexahydro-5H-4-oxa-3,10a,11,13,14-pentaaza-6,9-methanonaphtho[1,8-ab]heptalen-2-yl)-3-methyl-4-(trifluoromethyl)aniline] are 0.11 nM and 3.72 nM.
On the same counts, the results for `C[C@@H]1Oc2nc(-c3cc(N)cc(F)c3C(F)(F)F)c(F)c3nc(OC[C@@H]4CC[C@H]5COCCN54)nc(c23)N2C[C@H]3CC[C@H](N3)[C@@H]12` [Compound 77, 3-Fluoro-5-((5S,5aS,6S,9R)-1-fluoro-12-(((6S,8aS)-hexahydro-1H-pyrrolo[2,1-c][1,4]oxazin-6-yl)methoxy)-5-methyl-5a,6,7,8,9,10-hexahydro-5H-4-oxa-3,10a,11,13,14-pentaaza-6,9-methanonaphtho[1,8-ab]heptalen-2-yl)-4-(trifluoromethyl)aniline] are 0.24 nM and 21.1 nM.
With `C[C@@H]1Oc2nc(-c3cc(O)cc4ccc(F)c(F)c34)c(F)c3nc(OC[C@@]45CCCN4C[C@H](F)C5)nc(c23)N2C[C@H]3CC[C@H](N3)[C@@H]12` [Compound 82, 5,6-Difluoro-4-((5S,5aS,6S,9aR)-1-fluoro-12-(((2R,7aS)-2-fluorotetrahydro-1H-pyrrolizin-7a(5H)-yl)methoxy)-5-methyl-5a,6,7,8,9,10-hexahydro-5H-4-oxa-3,10a,11,13,14-pentaaza-6,9-methanonaphtho[1,8-ab]heptalen-2-yl)naphthalen-2-ol], the IC50 at KRAS G12D worked out at 360 nM; at KRAS WT, 23500 nM.
